Data from US20240368135A1 (VERTEX PHARMACEUTICALS INCORPORATED, priority 2021, published 2024).
Read-outs that look alike come from different tables or passages of the source.

Target: human NaV 1.8 (Homo sapiens, UniProt Q9Y5Y9)
Assay: E-VIPR assay detecting and measuring NaV inhibition properties
Format: cell-based
Details: HEK cells expressing truncated human NaV 1.8
Outline: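 HEK cells expressing truncated, fully active human NaV1.8, with KIR2.1 BacMam co-transduction, were loaded with CC2-DMPE/DiSBAC6(3) voltage-sensing dyes for 20 min at room temperature. Compounds were tested in 11-point 3-fold dilutions (300 nM top final), optionally with 25% human serum, under electrical stimulation with FRET read-out.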

[1] = no human serum, read-out: IC50 in the E-VIPR Assay
[2] = in the presence of human serum (compound numbers followed by *), read-out: IC50 in the E-VIPR Assay, performed in the presence of human serum

Sequence of human NaV 1.8 (Q9Y5Y9 126-399 limits assumed): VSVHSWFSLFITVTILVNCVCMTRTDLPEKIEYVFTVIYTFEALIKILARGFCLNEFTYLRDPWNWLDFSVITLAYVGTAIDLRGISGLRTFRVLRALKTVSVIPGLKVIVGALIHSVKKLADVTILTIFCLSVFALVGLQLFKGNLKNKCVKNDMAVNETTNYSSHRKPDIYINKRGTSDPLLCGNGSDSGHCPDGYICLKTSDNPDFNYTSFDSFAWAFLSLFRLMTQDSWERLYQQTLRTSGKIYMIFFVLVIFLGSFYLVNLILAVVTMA
Sequence of human NaV 1.8 (Q9Y5Y9 660-890 limits assumed): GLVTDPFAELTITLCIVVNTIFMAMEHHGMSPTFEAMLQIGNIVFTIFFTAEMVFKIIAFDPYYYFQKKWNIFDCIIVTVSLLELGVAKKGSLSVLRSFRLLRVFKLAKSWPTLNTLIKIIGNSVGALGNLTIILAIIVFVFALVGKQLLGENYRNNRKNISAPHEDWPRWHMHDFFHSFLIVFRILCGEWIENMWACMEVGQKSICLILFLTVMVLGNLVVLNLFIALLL
Sequence of human NaV 1.8 (Q9Y5Y9 1148-1722 limits assumed): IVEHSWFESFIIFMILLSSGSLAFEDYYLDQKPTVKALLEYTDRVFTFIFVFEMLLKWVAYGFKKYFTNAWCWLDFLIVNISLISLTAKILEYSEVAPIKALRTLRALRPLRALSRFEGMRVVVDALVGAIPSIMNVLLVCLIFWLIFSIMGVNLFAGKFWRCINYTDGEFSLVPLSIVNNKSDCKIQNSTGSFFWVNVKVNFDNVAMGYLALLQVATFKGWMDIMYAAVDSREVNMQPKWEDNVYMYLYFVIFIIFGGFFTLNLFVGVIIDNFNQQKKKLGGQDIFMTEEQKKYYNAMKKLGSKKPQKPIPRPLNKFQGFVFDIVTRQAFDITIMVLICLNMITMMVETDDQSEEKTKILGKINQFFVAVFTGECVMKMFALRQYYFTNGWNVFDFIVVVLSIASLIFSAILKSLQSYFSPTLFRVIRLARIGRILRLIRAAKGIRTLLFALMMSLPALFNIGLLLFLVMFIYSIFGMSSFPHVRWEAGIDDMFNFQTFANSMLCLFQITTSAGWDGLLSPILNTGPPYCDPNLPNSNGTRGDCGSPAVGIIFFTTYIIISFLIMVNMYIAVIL

| Compound | IC50 [1] [nM] | IC50 [2] [nM] |
| --- | --- | --- |
| COc1c([C@H]2[C@H](C(=O)Nc3ccnc(N4C[C@@H]5CC[C@@H](N5)C4=O)c3)O[C@@](C)(C(F)(F)F)[C@H]2C)ccc(F)c1F (single isomer, unassigned) [Compound 494, rel-(2R*,3S*,4S*,5R*)-3-(3,4-difluoro-2-methoxyphenyl)-4,5-dimethyl-N-(2-((1R,5S)-2-oxo-3,8-diazabicyclo[3.2.1]octan-3-yl)pyridin-4-yl)-5-(trifluoromethyl)tetrahydrofuran-2-carboxamide] | 10 to 100 | – |
| COc1c(C2CC(C)(C(F)(F)F)OC2C(=O)Nc2ccnc(C(O)C(C)O)c2)ccc(F)c1F (single isomer, unassigned) [Compound 694] | – | 10 to 100 |
| C[C@H]1[C@@H](c2ccc(F)c(F)c2OCCN=S(C)(C)=O)[C@H](C(=O)Nc2ccnc(CO)c2)O[C@@]1(C)C(F)(F)F [Compound 640, (2R,3S,4S,5R)-3-(2-(2-((dimethyl(oxo)-λ^6-sulfaneylidene)amino)ethoxy)-3,4-difluorophenyl)-N-(2-(hydroxymethyl)pyridin-4-yl)-4,5-dimethyl-5-(trifluoromethyl)tetrahydrofuran-2-carboxamide] | 10 to 100 | – |
| C[C@H]1[C@@H](c2ccc(F)c(F)c2OCCN2C[C@H]3COC[C@H]3C2)[C@H](C(=O)Nc2cc(C(N)=O)nn2C)O[C@@]1(C)C(F)(F)F [Compound 597, 5-[[(2R,3S,4S,5R)-3-[2-[2-[(3aS,6aR)-1,3,3a,4,6,6a-hexahydrofuro[3,4-c]pyrrol-5-yl]ethoxy]-3,4-difluoro-phenyl]-4,5-dimethyl-5-(trifluoromethyl)tetrahydrofuran-2-carbonyl]amino]-1-methyl-pyrazole-3-carboxamide] | 10 to 100 | – |
| Cc1nn(S(C)(=O)=O)cc1NC(=O)[C@@H]1O[C@@](C)(C(F)(F)F)[C@@H](C)[C@H]1c1ccc(F)c(F)c1OCCO [Compound 538, (2R,3S,4S,5R)-3-(3,4-difluoro-2-(2-hydroxyethoxy)phenyl)-4,5-dimethyl-N-(3-methyl-1-(methylsulfonyl)-1H-pyrazol-4-yl)-5-(trifluoromethyl)tetrahydrofuran-2-carboxamide] | < 10 | – |
| COc1c([C@H]2[C@H](C(=O)NCC3(c4ccccc4)CC3)O[C@@](C)(C(F)(F)F)[C@H]2C)ccc(F)c1F [Compound 305, (2R,3S,4S,5R)-3-(3,4-difluoro-2-methoxyphenyl)-4,5-dimethyl-N-((1-phenylcyclopropyl)methyl)-5-(trifluoromethyl)tetrahydrofuran-2-carboxamide] | ≥ 1000 | – |
| C[C@H]1[C@@H](c2ccc(F)c(F)c2OCCO)[C@H](C(=O)Nc2cncnc2)O[C@@]1(C)C(F)(F)F [Compound 539, (2R,3S,4S,5R)-3-(3,4-difluoro-2-(2-hydroxyethoxy)phenyl)-4,5-dimethyl-N-(pyrimidin-5-yl)-5-(trifluoromethyl)tetrahydrofuran-2-carboxamide] | 10 to 100 | – |
| COc1c([C@H]2[C@H](C(=O)Nc3ccc(C(=O)O)nc3)O[C@@](C)(C(F)(F)F)[C@H]2C)ccc(F)c1C(F)F (single isomer, unassigned) [Compound 176] | < 10 | – |
| COc1c(C2C(C(=O)Nc3ccn4nnnc4c3)OC(C)(C(F)(F)F)C2C)ccc(F)c1C (racemic) [Compound 132, 3-(4-fluoro-2-methoxy-3-methyl-phenyl)-4,5-dimethyl-N-(tetrazolo[1,5-a]pyridin-7-yl)-5-(trifluoromethyl)tetrahydrofuran-2-carboxamide] | < 10 | – |

The remaining lines, values ahead:

| IC50 [1] [nM] | IC50 [2] [nM] | Compound |
| --- | --- | --- |
| < 10 | – | COc1c([C@H]2[C@H](C(=O)Nc3cnnc(C(C)(C)O)c3)O[C@@](C)(C(F)(F)F)[C@H]2C)ccc(F)c1F [Compound 219, (2R,3S,4S,5R)-3-(3,4-difluoro-2-methoxy-phenyl)-N-[6-(1-hydroxy-1-methyl-ethyl)pyridazin-4-yl]-4,5-dimethyl-5-(trifluoromethyl)tetrahydrofuran-2-carboxamide] |
| 10 to 100 | – | COc1c([C@H]2[C@H](C(=O)Nc3ccnc(N4C[C@@H]5C[C@@H](N5)C4=O)c3)O[C@@](C)(C(F)(F)F)[C@H]2C)ccc(F)c1F (single isomer, unassigned) [Compound 492, rel-(2R*,3S*,4S*,5R*)-3-(3,4-difluoro-2-methoxyphenyl)-4,5-dimethyl-N-(2-((1R,5S)-2-oxo-3,6-diazabicyclo[3.1.1]heptan-3-yl)pyridin-4-yl)-5-(trifluoromethyl)tetrahydrofuran-2-carboxamide] |
| 10 to 100 | – | C[C@H]1[C@@H](c2ccc(F)c(F)c2OCCO)[C@H](C(=O)Nc2cnn(C)c(=O)c2)O[C@@]1(C)C(F)(F)F [Compound 568, (2R,3S,4S,5R)-3-(3,4-difluoro-2-(2-hydroxyethoxy)phenyl)-4,5-dimethyl-N-(1-methyl-6-oxo-1,6-dihydropyridazin-4-yl)-5-(trifluoromethyl)tetrahydrofuran-2-carboxamide] |
| 10 to 100 | – | COc1c([C@H]2[C@H](C(=O)Nc3ccc(CC4CCNCC4)nc3)O[C@@](C)(C(F)(F)F)[C@H]2C)ccc(F)c1F [Compound 215, (2R,3S,4S,5R)-3-(3,4-difluoro-2-methoxyphenyl)-4,5-dimethyl-N-(6-(piperidin-4-ylmethyl)pyridin-3-yl)-5-(trifluoromethyl)tetrahydrofuran-2-carboxamide] |
| < 10 | – | CNC(c1cc(NC(=O)[C@@H]2O[C@@](C)(C(F)(F)F)[C@@H](C)[C@H]2c2ccc(F)c(F)c2OC)ccn1)C(C)(C)OC (single isomer, unassigned) [Compound 344, rel-(2R*,3S*,4S*,5R*)-3-(3,4-difluoro-2-methoxyphenyl)-N-(2-(2-methoxy-2-methyl-1-(methylamino)propyl)pyridin-4-yl)-4,5-dimethyl-5-(trifluoromethyl)-tetrahydrofuran-2-carboxamide] |
| ≥ 1000 | – | C[C@H]1[C@@H](c2ccc(F)c(F)c2OCCO)[C@H](C(=O)Nc2ncn(C3CCOC3)n2)O[C@@]1(C)C(F)(F)F (stereo partly drawn) [Compound 561, (2R,3S,4S,5R)-3-(3,4-difluoro-2-(2-hydroxyethoxy)phenyl)-4,5-dimethyl-N-(1-(tetrahydrofuran-3-yl)-1H-1,2,4-triazol-3-yl)-5-(trifluoromethyl)tetrahydrofuran-2-carboxamide] |
| ≥ 1000 | – | COc1c([C@H]2[C@H](C(=O)NCC3COC(C)(C)C3)O[C@@](C)(C(F)(F)F)[C@H]2C)ccc(F)c1F (stereo partly drawn) [Compound 284, (2R,3S,4S,5R)-3-(3,4-difluoro-2-methoxyphenyl)-N-((5,5-dimethyltetrahydrofuran-3-yl)methyl)-4,5-dimethyl-5-(trifluoromethyl)tetrahydrofuran-2-carboxamide] |
| 10 to 100 | – | COc1c([C@H]2[C@H](C(=O)Nc3cc(C4CN(C)CCO4)ncc3F)O[C@@](C)(C(F)(F)F)[C@H]2C)ccc(F)c1F (single isomer, unassigned) [Compound 367, rel-(2R*,3S*,4S*,5R*)-3-(3,4-difluoro-2-methoxyphenyl)-N-(5-fluoro-2-(4-methylmorpholin-2-yl)pyridin-4-yl)-4,5-dimethyl-5-(trifluoromethyl)tetrahydrofuran-2-carboxamide] |
| – | ≥ 1000 | COc1c(C2C(C(=O)Nc3ccnc(S(C)(=O)=O)c3)OC(C)(C(F)(F)F)C2C)ccc(F)c1F (single isomer, unassigned) [Compound 49, 3-(3,4-difluoro-2-methoxy-phenyl)-4,5-dimethyl-N-(2-methylsulfonyl-4-pyridyl)-5-(trifluoromethyl)tetrahydrofuran-2-carboxamide] |
